Reference: patent US5502035A, “N-terminus modified analogs of LHRH” (Tap Holdings Inc., priority 1994, dated 1996)
Non-standard residues stand in square brackets, D forms with d. Residues, ends and D or L forms follow the SMILES beside them. Groups on a side chain read outwards from the residue. *: point of attachment. Shikimoyl = O=C(C1=C[C@@H](O)[C@@H](O)[C@H](O)C1)*; dPhe(4-Cl) = N[C@H](Cc1ccc(Cl)cc1)C(=O)O; d2Nal = N[C@H](Cc1ccc2ccccc2c1)C(=O)O; NMeY = CN[C@@H](Cc1ccc(O)cc1)C(=O)O; d3Pal = N[C@H](Cc1cccnc1)C(=O)O; Nicotinoyl = O=C(c1cccnc1)*

target: T1, LHRH (Rattus norvegicus, UniProt P30969); assay: in vitro test for LHRH antagonist potency (pA2); type: cell-based; conditions: negative logarithm of the antagonist concentration required to shift the response curve produced by the agonist leuprolide to two-fold higher concentration
T1 construct: endogenous in cells; host or cells: rat pituitary cells (own knowledge of the cited Haviv 1989 method)
T1 sequence (P30969 1-327): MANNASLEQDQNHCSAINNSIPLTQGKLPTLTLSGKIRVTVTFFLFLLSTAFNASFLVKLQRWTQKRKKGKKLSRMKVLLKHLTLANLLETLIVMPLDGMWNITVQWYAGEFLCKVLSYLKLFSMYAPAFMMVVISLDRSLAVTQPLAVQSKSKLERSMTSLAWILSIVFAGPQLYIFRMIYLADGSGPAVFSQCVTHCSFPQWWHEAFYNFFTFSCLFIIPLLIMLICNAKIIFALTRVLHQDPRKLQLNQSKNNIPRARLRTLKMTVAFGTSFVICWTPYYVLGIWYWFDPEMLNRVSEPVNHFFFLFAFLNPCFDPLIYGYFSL
Summary of the method: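 Rat LHRH receptor in vitro functional test; pA2 = negative log of the antagonist concentration shifting the leuprolide agonist response curve to two-fold higher concentration.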

In order of rising Kb:
1. CC(C)C[C@H](NC(=O)[C@@H](CCCCNC(=O)C1=C[C@@H](O)[C@@H](O)[C@H](O)C1)NC(=O)[C@H](Cc1ccc(O)cc1)N(C)C(=O)[C@H](CO)NC(=O)[C@@H](Cc1cccnc1)NC(=O)[C@@H](Cc1ccc(Cl)cc1)NC(=O)[C@@H](Cc1ccc2ccccc2c1)NC(=O)[C@@H](CCCCNC(=O)c1cccnc1)NC(=O)C1=C[C@@H](O)[C@@H](O)[C@H](O)C1)C(=O)N[C@@H](CCCNC(=N)N)C(=O)N1CCC[C@H]1C(=O)N[C@H](C)C(N)=O [Example 14h, N-Shikimyl-DLys(Nic)-D2Nal-D4ClPhe-D3Pal-Ser-NMeTyr-DLys(Shik)-Leu-Arg-Pro-DAlaNH2] (Shikimoyl-[dK](Nicotinoyl)[d2Nal][dPhe(4-Cl)][d3Pal]S[NMeY][dK](Shikimoyl)LRP[dA]-NH2)  0.00417 nM
2. CC(C)C[C@H](NC(=O)[C@@H](CCCCNC(=O)C1=C[C@@H](O)[C@@H](O)[C@H](O)C1)NC(=O)[C@H](Cc1ccc(O)cc1)N(C)C(=O)[C@H](CO)NC(=O)[C@@H](Cc1cccnc1)NC(=O)[C@@H](Cc1ccc(Cl)cc1)NC(=O)[C@@H](Cc1ccc2ccccc2c1)NC(=O)CNC(=O)c1cccnc1)C(=O)N[C@@H](CCCNC(=N)N)C(=O)N1CCC[C@H]1C(=O)N[C@H](C)C(N)=O [Example 14k, N-Nicotinyl-Gly-D2Nal-D4ClPhe-D3Pal-Ser-NMeTyr-DLys(Shik)-Leu-Arg-Pro-DAlaNH2] (Nicotinoyl-G[d2Nal][dPhe(4-Cl)][d3Pal]S[NMeY][dK](Shikimoyl)LRP[dA]-NH2)  0.01 nM
3. CC(C)C[C@H](NC(=O)[C@@H](CCCCNC(=O)[C@@H](CO)NC(=O)c1cccnc1)NC(=O)[C@H](Cc1ccc(O)cc1)N(C)C(=O)[C@H](CO)NC(=O)[C@@H](Cc1cccnc1)NC(=O)[C@@H](Cc1ccc(Cl)cc1)NC(=O)[C@@H](Cc1ccc2ccccc2c1)NC(=O)CNC(=O)C1=C[C@@H](O)[C@@H](O)[C@H](O)C1)C(=O)N[C@@H](CCCNC(=N)N)C(=O)N1CCC[C@H]1C(=O)N[C@H](C)C(N)=O [Example 15c, N-Shikimyl-Gly-D2Nal-D4ClPhe-D3Pal-Ser-NMeTyr-DLys(DSer-Nic)-Leu-Arg-Pro-DAlaNH2] (Shikimoyl-G[d2Nal][dPhe(4-Cl)][d3Pal]S[NMeY][dK]([dS-Nicotinoyl])LRP[dA]-NH2)  0.01 nM
4. CC(C)C[C@H](NC(=O)[C@@H](CCCCNC(=O)C1=C[C@@H](O)[C@@H](O)[C@H](O)C1)NC(=O)[C@H](Cc1ccc(O)cc1)N(C)C(=O)[C@H](CO)NC(=O)[C@@H](Cc1cccnc1)NC(=O)[C@@H](Cc1ccc(Cl)cc1)NC(=O)[C@@H](Cc1ccc2ccccc2c1)NC(=O)CNC(=O)C1=C[C@@H](O)[C@@H](O)[C@H](O)C1)C(=O)N[C@@H](CCCNC(=N)N)C(=O)N1CCC[C@H]1C(=O)N[C@H](C)C(N)=O [Example 14l, N-Shikimyl-Gly-D2Nal-D4ClPhe-D3Pal-Ser-NMeTyr-DLys(Shik)-Leu-Arg-Pro-DAlaNH2] (Shikimoyl-G[d2Nal][dPhe(4-Cl)][d3Pal]S[NMeY][dK](Shikimoyl)LRP[dA]-NH2)  0.02 nM
5. CC(C)C[C@H](NC(=O)[C@@H](CCCCNC(=O)CNC(=O)c1cccnc1)NC(=O)[C@H](Cc1ccc(O)cc1)N(C)C(=O)[C@H](CO)NC(=O)[C@@H](Cc1cccnc1)NC(=O)[C@@H](Cc1ccc(Cl)cc1)NC(=O)[C@@H](Cc1ccc2ccccc2c1)NC(=O)CNC(=O)C1=C[C@@H](O)[C@@H](O)[C@H](O)C1)C(=O)N[C@@H](CCCNC(=N)N)C(=O)N1CCC[C@H]1C(=O)N[C@H](C)C(N)=O [Example 15b, N-Shikimyl-Gly-D2Nal-D4ClPhe-D3Pal-Ser-NMeTyr-DLys(Gly-Nic)-Leu-Arg-Pro-DAlaNH2] (Shikimoyl-G[d2Nal][dPhe(4-Cl)][d3Pal]S[NMeY][dK]([Gly-Nicotinoyl])LRP[dA]-NH2)  0.0209 nM
6. CC(C)C[C@H](NC(=O)[C@@H](CCCCNC(=O)C1=C[C@@H](O)[C@@H](O)[C@H](O)C1)NC(=O)[C@H](Cc1ccc(O)cc1)N(C)C(=O)[C@H](CO)NC(=O)[C@@H](Cc1cccnc1)NC(=O)[C@@H](Cc1ccc(Cl)cc1)NC(=O)[C@@H](Cc1ccc2ccccc2c1)NC(=O)[C@@H](CO)NC(=O)C1=C[C@@H](O)[C@@H](O)[C@H](O)C1)C(=O)N[C@@H](CCCNC(=N)N)C(=O)N1CCC[C@H]1C(=O)N[C@H](C)C(N)=O [Example 14f, N-Shikimyl-DSer-D2Nal-D4ClPhe-D3Pal-Ser-NMeTyr-DLys(Shik)-Leu-Arg-Pro-DAlaNH2] (Shikimoyl-[dS][d2Nal][dPhe(4-Cl)][d3Pal]S[NMeY][dK](Shikimoyl)LRP[dA]-NH2)  0.0355 nM
7. CC(C)C[C@H](NC(=O)[C@@H](CCCCNC(=O)c1cccnc1)NC(=O)[C@H](Cc1ccc(O)cc1)N(C)C(=O)[C@H](CO)NC(=O)[C@@H](Cc1cccnc1)NC(=O)[C@@H](Cc1ccc(Cl)cc1)NC(=O)[C@@H](Cc1ccc2ccccc2c1)NC(=O)CNC(=O)C1=C[C@@H](O)[C@@H](O)[C@H](O)C1)C(=O)N[C@@H](CCCNC(=N)N)C(=O)N1CCC[C@H]1C(=O)N[C@H](C)C(N)=O [Example 15a, N-Shikimyl-Gly-D2Nal-D4ClPhe-D3Pal-Ser-NMeTyr-DLys(Nic)-Leu-Arg-Pro-DAlaNH2] (Shikimoyl-G[d2Nal][dPhe(4-Cl)][d3Pal]S[NMeY][dK](Nicotinoyl)LRP[dA]-NH2)  0.0631 nM
8. CC(C)C[C@H](NC(=O)[C@@H](CCCCNC(=O)C1=C[C@@H](O)[C@@H](O)[C@H](O)C1)NC(=O)[C@H](Cc1ccc(O)cc1)N(C)C(=O)[C@H](CO)NC(=O)[C@@H](Cc1cccnc1)NC(=O)[C@@H](Cc1ccc(Cl)cc1)NC(=O)[C@@H](Cc1ccc2ccccc2c1)NC(=O)[C@@H](CCCCNC(=O)c1cccnc1)NC(=O)c1cccnc1)C(=O)N[C@@H](CCCNC(=N)N)C(=O)N1CCC[C@H]1C(=O)N[C@H](C)C(N)=O [Example 14g, N-Nicotinyl-DLys(Nic)-D2Nal-D4ClPhe-D3Pal-Ser-NMeTyr-DLys(Shik)-Leu-Arg-Pro-DAlaNH2] (Nicotinoyl-[dK](Nicotinoyl)[d2Nal][dPhe(4-Cl)][d3Pal]S[NMeY][dK](Shikimoyl)LRP[dA]-NH2)  0.11 nM
9. CC(C)C[C@H](NC(=O)[C@@H](CCCCNC(=O)C1=C[C@@H](O)[C@@H](O)[C@H](O)C1)NC(=O)[C@H](Cc1ccc(O)cc1)N(C)C(=O)[C@H](CO)NC(=O)[C@@H](Cc1cccnc1)NC(=O)[C@@H](Cc1ccc(Cl)cc1)NC(=O)[C@@H](Cc1ccc2ccccc2c1)NC(=O)[C@@H](CCCCNC(=O)C1=C[C@@H](O)[C@@H](O)[C@H](O)C1)NC(=O)c1cccnc1)C(=O)N[C@@H](CCCNC(=N)N)C(=O)N1CCC[C@H]1C(=O)N[C@H](C)C(N)=O [Example 14i, N-Nicotinyl-DLys(Shik)-D2Nal-D4ClPhe-D3Pal-Ser-NMeTyr-DLys(Shik)-Leu-Arg-Pro-DAlaNH2] (Nicotinoyl-[dK](Shikimoyl)[d2Nal][dPhe(4-Cl)][d3Pal]S[NMeY][dK](Shikimoyl)LRP[dA]-NH2)  0.339 nM
10. CC(C)C[C@H](NC(=O)[C@@H](CCCCNC(=O)C1=C[C@@H](O)[C@@H](O)[C@H](O)C1)NC(=O)[C@H](Cc1ccc(O)cc1)N(C)C(=O)[C@H](CO)NC(=O)[C@@H](Cc1cccnc1)NC(=O)[C@@H](Cc1ccc(Cl)cc1)NC(=O)[C@@H](Cc1ccc2ccccc2c1)NC(=O)[C@@H](CCCCNC(=O)C1=C[C@@H](O)[C@@H](O)[C@H](O)C1)NC(=O)C1=C[C@@H](O)[C@@H](O)[C@H](O)C1)C(=O)N[C@@H](CCCNC(=N)N)C(=O)N1CCC[C@H]1C(=O)N[C@H](C)C(N)=O [Example 14j, N-Shikimyl-DLys(Shik)-D2Nal-D4ClPhe-D3Pal-Ser-NMeTyr-DLys(Shik)-Leu-Arg-Pro-DAlaNH2] (Shikimoyl-[dK](Shikimoyl)[d2Nal][dPhe(4-Cl)][d3Pal]S[NMeY][dK](Shikimoyl)LRP[dA]-NH2)  0.759 nM
